From patent US11702417B2, “Compounds for improving mRNA splicing” (The General Hospital Corporation, priority 2015, dated 2023)
Like-named read-outs stand apart in the source and are kept apart here.

System: FD (familial dysautomonia) IKBKAP minigene, exon 20 inclusion, in HEK293T cells
Assay: Primary splicing assay (FD IKBKAP minigene, Firefly/Renilla luciferase reporter in HEK293T)
Assay type: cell-based, human
Conditions: for Emax / EC (maximum kinetin efficacy): Homo sapiens, HEK-293T; for EC (maximum kinetin efficacy): HEK293T, read-out: ECk (compound concentration at which the maximum kinetin efficacy (200 μM) is reached); for ECk (RT-PCR): determined by RT-PCR, footnote a Firefly inhibitor, footnote b Renilla interference; for ECk, Firefly only: Renilla interference/Firefly only (footnote c)
Experimental: As used herein, the expression “ECk” refers to the compound concentration at which the maximum kinetin efficacy (200 μM) is reached.
Splicing analysis was made possible by using an FD (familial dysautomonia) IKBKAP minigene which contained exon 19 through exon 21, including intervening introns, and also the T→C Thymine to cytosine transition located 6 base-pairs from the end of IKBKAP exon 20; See SEQ ID NO:3 for the complete sequence of plasmid pcDNA3.1/V5HisTOPO with Renilla-Familial Dysautonomia minigene-Firefly. Firefly luciferase (SEQ ID NO:14) was utilized as a splicing reporter, located downstream of exon 21, and Renilla luciferase (SEQ ID NO:13) was used as a control, located upstream of exon 19. The sequence of exon 19 is presented as SEQ ID NO:7; the Intron between Exon 19 and Exon 20 is SEQ ID NO:8; exon 20 is SEQ ID NO:9; the intron between […]; exon 21 is SEQ ID NO: 11, and the spliced sequence of exons 19-20-21 is SEQ ID NO:12. HEK293T cells were plated in a 6-well plate 24 hours prior to transfection. Transfection was carried out using a mixture of Opti-MEM (GIBCO ref. 31985), IKBKAP minigene, and Fugene HID (PROMEGA ref. E2311), incubated in DMEM media containing HEK293T cells at 37° C. The ratio of Opti-MEM, minigene, and Fugene was kept at approximately 9:1.5:1, with a total volume of 150 μL of transfection mixture applied per well.
After 4 hours of transfection, the cells were then plated in a 96-well plate coated with poly-L-lysine (SIGMA cat.P4707) for treatment scheduled 24 hours later. […] After 24 hours of treatment, cells were washed in the poly-L-lysine coated 96-well plate using PBS and subsequently harvested using Passive Lysis Buffer (Promega cat.E196). Cell lysate was transferred to a black and white 96-well plate and analyzed for splicing correction using a Glomax luminometer (PROMEGA GloMax® 96 Microplate Luminometer w/Dual Injectors cat.E6521) and Promega Dual Glo Firefly and Stop and Glo Renilla reagents (Cat.E196). The compound's ability to correct splicing and promote exon 20 inclusion was marked by an increase in Firefly signal. Renilla signal, which is independent of exon 20 inclusion, was used to correct for cell number. Using the ratio of Firefly to Renilla signal, a dose response curve was produced, which referenced kinetin and DMSO Firefly/Renilla ratios as positive and negative controls, respectively.

[1] = max efficacy in Primary Assay, Firefly/Renilla ratio, kinetin and DMSO as positive and negative controls, 24 hours of treatment, read-out: Emax (%)
[2] = Firefly/Renilla ratio, 24 hours of treatment
[3] = max efficacy, value marked (RT-PCR), footnote a: Firefly inhibitor, read-out: Emax (%) (RT-PCR)
[4] = max efficacy, Firefly only, footnote c: Renilla interference/Firefly only, read-out: Emax (%) Firefly only

Structure (SMILES) | Emax [1] | EC (maximum kinetin efficacy) [2] | further results
Cc1cccc(CNc2ncnc3[nH]cnc23)c1 [(1)] | 19% | – | –
c1coc(CNc2ncnc3[nH]ccc23)c1 [(3)] | 59% | – | –
FC(F)(F)c1cccc(CCNc2ncnc3[nH]cnc23)c1 [(5)] | – | 63.5 µM | –
c1c[nH]c(CNc2ncnc3[nH]cnc23)n1 [(6)] | 21% | – | –
c1cncc(CNc2ncnc3[nH]cnc23)c1 [(7)] | 39% | – | –
Cc1cc(CNc2ncnc3[nH]cnc23)on1 [(8)] | 25% | – | –
FC(F)(F)c1cccc(CNc2ncnc3[nH]cnc23)c1 [(10)] | 21% | – | –
Fc1cccc(CNc2ncnc3[nH]cnc23)c1 [(12)] | – | – | Emax (max efficacy in Primary Assay, value flagged footnote a: Firefly inhibitor, read-out: Emax (%)): 54%
FC(F)(F)c1cccc(Nc2ncnc3[nH]cnc23)c1 [(13)] | 16% | – | –
Cc1ccccc1CNc1ncnc2[nH]cnc12 [(14)] | 53% | – | –
Fc1ccccc1Nc1ncnc2[nH]cnc12 [(15)] | – | 158 µM | –
c1csc(CNc2ncnc3[nH]cnc23)n1 [(16)] | 67% | – | –
FC(F)(F)c1ccccc1Nc1ncnc2[nH]cnc12 [(18)] | 39% | – | –
Cn1cnc2c(NCc3ccco3)ncnc21 [(20)] | 22% | – | –
c1coc(CNc2ncnc3cc[nH]c23)c1 [(22)] | 49% | – | –
FC(F)(F)c1ccccc1CNc1ncnc2[nH]cnc12 [(23)] | 34% | – | –
Cc1cccc(CCNc2ncnc3[nH]cnc23)c1 [(25)] | – | 9.35 µM | –
FC(F)(F)c1ccc(CCNc2ncnc3[nH]cnc23)cc1 [(26)] | 66% | – | –
Fc1cccc(CCNc2ncnc3[nH]cnc23)c1 [(28)] | 98% | 123 µM | –
Cc1ccccc1CCNc1ncnc2[nH]cnc12 [(32)] | – | 60 µM | –
Fc1ccc(Nc2ncnc3[nH]cnc23)cc1 [(34)] | – | 26.6 µM | –

Structure (SMILES) | Emax [1] | EC (maximum kinetin efficacy) [2] | further results
COc1nc(NCc2ccco2)c2nc[nH]c2n1 [(36)] | 18% | – | –
Cc1cccc(Nc2ncnc3[nH]cnc23)c1 [(37)] | – | 36.5 µM | –
c1ccc(-c2nc(NCc3ccco3)c3nc[nH]c3n2)cc1 [(38)] | 5% | – | –
c1cncc(CCNc2ncnc3[nH]cnc23)c1 [(41)] | 35% | – | –
FC(F)(F)c1nc(NCc2ccco2)c2nc[nH]c2n1 [(44)] | 19% | – | –
Cc1nc(NCc2ccco2)c2nc[nH]c2n1 [(45)] | 56% | – | –
N#Cc1nc(NCc2ccco2)c2nc[nH]c2n1 [(47)] | 99% | – | –
c1coc(CNc2ccnc3[nH]cnc23)c1 [(48)] | – | 72.8 µM | –
COc1cccc(Nc2ncnc3[nH]cnc23)c1 [(49)] | – | 42.5 µM | –
Cc1ccoc1CNc1ncnc2[nH]cnc12 [(54)] | 13% | – | –
Clc1nc(NCc2ccco2)c2cc[nH]c2n1 [(55)] | 173% | 1.71 µM | –
Clc1nc(NCc2ccco2)c2ccsc2n1 [(56)] | 152% | 8.23 µM | –
Clc1nc(NCc2ccco2)c2[nH]ccc2n1 [(57)] | – | 31.2 µM | –
Fc1nc(NCc2ccco2)c2nc[nH]c2n1 [(58)] | 155% | 17.9 µM | –
CN(C)c1nc(NCc2ccco2)c2nc[nH]c2n1 [(60)] | 13% | – | –
c1coc(CNc2nc(C3CC3)nc3[nH]cnc23)c1 [(65)] | 32% | – | –
CC(C)c1nc(NCc2ccco2)c2nc[nH]c2n1 [(67)] | 13% | – | –
c1cc(CNc2ncnc3[nH]cnc23)ncn1 [(68)] | 62% | – | –
Clc1nc(NCc2ccco2)c2ncn(Cc3ccncc3)c2n1 [(72)] | 39% | – | –
OCCn1cnc2c(NCc3ccco3)nc(Cl)nc21 [(73)] | 133% | 17.1 µM | –
OCCn1ccc2c(NCc3ccco3)ncnc21 [(74)] | 64% | – | –

Structure (SMILES) | Emax [1] | EC (maximum kinetin efficacy) [2] | further results
Clc1nc(NCc2ccco2)c2ncn(Cc3cccnc3)c2n1 [(76)] | 69% | – | –
OCCn1ccc2c(NCc3ccco3)nc(Cl)nc21 [(77)] | – | – | Emax (max efficacy, value marked (RT-PCR), footnote b: Renilla interference, read-out: Emax (%) (RT-PCR)): 321%; ECk (RT-PCR): 1 to 10 µM
Clc1nc(NCc2ccco2)c2ncn(Cc3ccccn3)c2n1 [(79)] | 43% | – | –
Fc1c[nH]c2nc(Cl)nc(NCc3ccco3)c12 [(81)] | – | 3.08 µM | –
c1ccc(-c2c[nH]c3ncnc(NCc4ccco4)c23)cc1 [(83)] | 4% | – | –
Cc1c[nH]c2nc(Cl)nc(NCc3ccco3)c12 [(84)] | – | – | Emax [3]: 251%; ECk (RT-PCR): 1 to 10 µM
Clc1nc(NCc2ccco2)c2cn[nH]c2n1 [(85)] | 96% | – | –
Clc1nc(NCc2ccco2)c2c(-c3ccccc3)c[nH]c2n1 [(86)] | 29% | – | –
Cc1nc2ncnc(NCc3ccco3)c2[nH]1 [(87)] | 46% | – | –
Clc1nc(NCc2ccco2)c2nc(-c3cccnc3)[nH]c2n1 [(88)] | 33% | – | –
Clc1nc(NCc2ccco2)c2c(-c3ccncc3)c[nH]c2n1 [(89)] | 21% | – | –
Cc1nc2c(NCc3ccco3)nc(Cl)nc2[nH]1 [(90)] | 159% | 11.8 µM | –
Clc1nc(NCc2ccco2)c2nc(-c3ccccc3)[nH]c2n1 [(93)] | 63% | – | –
COCCn1ccc2c(NCc3ccco3)nc(Cl)nc21 [(94)] | – | – | Emax [3]: 180%; ECk (RT-PCR): 10 to 31.6 µM
Clc1nc(NCc2ccco2)c2nc(C3CC3)[nH]c2n1 [(95)] | 103% | 122 µM | –
c1coc(CNc2ncnc3[nH]c(C4CC4)nc23)c1 [(96)] | 65% | – | –
Clc1nc(NCc2ccco2)c2nc(Cc3ccncc3)[nH]c2n1 [(99)] | 47% | – | –
Clc1nc(NCc2ccco2)c2nc(N3CCOCC3)[nH]c2n1 [(102)] | 52% | – | –
OC1CN(c2nc3c(NCc4ccco4)nc(Cl)nc3[nH]2)C1 [(104)] | 246% | 12 µM | –
Cc1cn(CCO)c2nc(Cl)nc(NCc3ccco3)c12 [(105)] | – | – | Emax [4]: 134%; ECk, Firefly only: 10.36 µM⁻¹
O=C(O)c1ccc(CNc2nc(Cl)nc3[nH]ccc23)cc1 [(106)] | 14% | – | –

Structure (SMILES) | Emax [1] | EC (maximum kinetin efficacy) [2] | further results
OCCCn1ccc2c(NCc3ccco3)nc(Cl)nc21 [(108)] | – | – | Emax [3]: 172%
OCc1c[nH]c2nc(Cl)nc(NCc3ccco3)c12 [(109)] | – | – | Emax [4]: 128%; ECk, Firefly only: 12.16 µM⁻¹
Clc1nc(NCc2ccncn2)c2cc[nH]c2n1 [(110)] | – | – | Emax [4]: 193%; ECk, Firefly only: 4.92 µM⁻¹
OCCn1cc(F)c2c(NCc3ccco3)nc(Cl)nc21 [(111)] | – | – | Emax [4]: 191%; ECk, Firefly only: 9.3 µM⁻¹
Fc1c[nH]c2nc(Cl)nc(NCc3ccncn3)c12 [(112)] | – | – | Emax [4]: 111%; ECk, Firefly only: 5.33 µM⁻¹
CNc1nc2c(NCc3ccco3)nc(Cl)nc2[nH]1 [(113)] | 132% | 5.17 µM | –
Fc1c[nH]c2nc(Cl)nc(NCc3ccncc3)c12 [(114)] | – | – | Emax [4]: 174%; ECk, Firefly only: 6.59 µM⁻¹
Cc1cc2c(NCc3ccco3)nc(Cl)nc2[nH]1 [(115)] | 174% | 5.92 µM | –
Fc1c[nH]c2nc(Cl)nc(NCc3nccs3)c12 [(116)] | 112% | 31.8 µM | –
O=C(O)c1ccc(CNc2nc(Cl)nc3[nH]cc(F)c23)cc1 [(117)] | 23% | – | –
CN(C)c1nc2c(NCc3ccco3)nc(Cl)nc2[nH]1 [(118)] | 112% | 10.5 µM | –
Cc1cc2c(NCc3ccncc3)nc(Cl)nc2[nH]1 [(119)] | 114% | 11.2 µM | –
Cc1c[nH]c2nc(Cl)nc(NCc3ccncc3)c12 [(120)] | 166% | 2.75 µM | –
Cc1cn(CCO)c2nc(Cl)nc(NCc3ccncc3)c12 [(121)] | 189% | 17.3 µM | –
OCCn1ccc2c(NCc3ccncc3)nc(Cl)nc21 [(122)] | 256% | 5.65 µM | –
Cc1c[nH]c2nc(Cl)nc(NCc3nccs3)c12 [(123)] | 92% | 4.9 µM | –
COc1nc2c(NCc3ccco3)nc(Cl)nc2[nH]1 [(124)] | 180% | 2.41 µM | –
Cc1cn(CCO)c2nc(Cl)nc(NCc3nccs3)c12 [(125)] | 225% | 6.52 µM | –
